Converted amounts (≈) assume the structure as drawn.
How the values were obtained:
NCI H460 = assay: Sulforhodamine B (SRB) assay; format: cell-based; settings: Homo sapiens; NCI H460, Lung; 48 hours; read-out: GI50 (SRB in vitro cytotoxicity)
Protocol: (§1) Growth inhibitory effect of Compound A on the cells listed below was measured by the sulforhodamine B assay. SW480 cells in 100 μl media were plated in each well of 96-well plate and allowed to attach for 24 hours. Compound A was added to the wells to produce the desired final concentrations, and the plates were incubated at 37° C. for 48 hours. The cells were then fixed by gentle addition of 100 μl of cold (4° C.) 10% trichloroacetic acid to each well, followed by incubation at 4° C. for 1 hour. Plates were washed with deionized water five times and allowed to air dry. The cells were then stained by addition of 100 μl SRB solution (0.4% SRB(w/v) in 1% acetic acid (v/v)) to wells for 15 min. After staining, the plates were quickly washed five times with 1% acetic acid to remove any unbound dye, and allowed to air dry. Bound dye was solubilized with 10 mmol/L Tris base (pH 10.5) prior to reading the plates. The optical density (OD) was read on a plate reader at a wavelength of 515 nm with Molecular Device. Inhibition of growth was expressed as relative viability (% of control) and GI50 was calculated from concentration-response curves after log/probit transformation.

CACO-2 = assay: Sulforhodamine B (SRB) assay; format: cell-based; settings: Homo sapiens; CACO-2, Colon; 48 hours; read-out: GI50 (SRB in vitro cytotoxicity)
Protocol: as §1

UACC62 = assay: Sulforhodamine B (SRB) assay; format: cell-based; settings: Homo sapiens, UACC-62; UACC62, Melanoma; 48 hours; read-out: GI50 (SRB in vitro cytotoxicity)
Protocol: as §1

RPMI8226 = assay: Sulforhodamine B (SRB) assay; format: cell-based; settings: Homo sapiens, RPMI-8226; RPMI8226, Leukemia; 48 hours; read-out: GI50 (SRB in vitro cytotoxicity)
Protocol: as §1

HL60 = assay: Sulforhodamine B (SRB) assay; format: cell-based; settings: Homo sapiens, HL-60; HL60, Leukemia; 48 hours; read-out: GI50 (SRB in vitro cytotoxicity)
Protocol: as §1

HCC2998 = assay: Sulforhodamine B (SRB) assay; format: cell-based; settings: Homo sapiens, HCC 2998; HCC2998, Colon; 48 hours; read-out: GI50 (SRB in vitro cytotoxicity)
Protocol: as §1

HMV-II = assay: Sulforhodamine B (SRB) assay; format: cell-based; settings: Melanoma, 48 hours, read-out: GI50 (SRB in vitro cytotoxicity)
Protocol: as §1

NCI H23 = assay: Sulforhodamine B (SRB) assay; format: cell-based; settings: Homo sapiens; NCI H23, Lung; 48 hours; read-out: GI50 (SRB in vitro cytotoxicity)
Protocol: as §1

SW480 cells = assay: Soft agar colony formation assay; format: cell-based
Protocol: The soft agar colony formation assay was conducted with SW480 cells by some modification of the procedure previously described (Moody et al., “A vasoactive intestinal peptide antagonist inhibits non-small cell lung cancer growth,” Proc. Natl. Acad. Sci. USA. 90:4345-49 (1993)).
Each well (35 mm) of a 6-well plate (Nalge Nunc International, Roskide, Denmark) was coated with 1 ml of 0.8% bottom agar in DMEM medium containing 10% fetal bovine serum. After it was solidified, 1 ml of DMEM medium containing 0.4% top agar, 10% fetal bovine serum, compound doubly concentrated, and 5,000 single viable cells was added to each well. The cultures were incubated at 37° C. in humidified 5% CO2 incubator. Colonies in soft agar were monitored daily and photographed after incubation for 8 days. Colonies>60 μm in diameter were counted.

caspase 3 = assay: Caspase 3 activity in cultured tumor cells; format: cell-based
cultured tumor cells = assay: FACS analysis, cells in G0; format: cell-based; settings: 5 μM
[1] = system: TCF/β-catenin reporter gene transcription in PC-12 PS-1/L286V cells; assay: TOPFLASH luciferase assay in differentiated PC-12 cells; format: cell-based, Rat; settings: PS-1/L286V mutant PC-12 cells; 10 μM plus NGF
Protocol: Differentiated PC-12/L286V cells were treated with increasing concentrations of this compound for 4 hours. Transfection was then initiated after this treatment period.
Transfection. PC-12 cells were cultured and differentiated on 60-mm dishes. At the end of the 10-day differentiation period, cells were transfected with 2 μg reporter constructs, TOPFLASH and FOPFLASH, per 60-mm dish. Transfections were performed using Superfect (Qiagen) according to manufacturer's instructions.
Luciferase Assays. Cells were lysed, 6 hours after transfections, in 100 μl of Cell Culture Lysis Reagent (Promega, Madison, Wis.), and scraped into microcentrifuge tubes. Tubes were then centrifuged briefly (about 10 seconds) at 12000 rpm to pellet cell debris. Luciferase activity was measured on 20 μl of cell lysate and 100 μl substrate from the Luciferase Assay System (Promega). Luciferase activity was measure using Packard LumiCount. (Hewlett Packard). Quantitation of luciferase was performed in triplicates, and repeated in at least three independent experiments.

| IC50 (SW480 cells; Homo sapiens, 192 h, 8 days, colonies >60 μm) [nM] | Structure (SMILES) | GI50 (NCI H460) [µg/mL] | GI50 (CACO-2) [µg/mL] | GI50 (UACC62) [µg/mL] | GI50 (RPMI8226) [µg/mL] | GI50 (HL60) [µg/mL] | GI50 (HCC2998) [µg/mL] | GI50 (HMV-II) [µg/mL] | GI50 (NCI H23) [µg/mL] | number of colonies formed in soft agar (SW480 cells; 0.25-5 μM) | caspase 3 activity, co-treatment (caspase 3; co-treatment of stausporine (0.5 μM) and Compound D) | caspase 3 activity (caspase 3; cultured tumor cells, 2.5 μM or 5.0 μM) | number of cells in G0 (FACS) (cultured tumor cells) | TCF/β-catenin reporter gene transcription [1] |
| --- | --- | --- | --- | --- | --- | --- | --- | --- | --- | --- | --- | --- | --- | --- |
|  | O=c1[nH]cc(F)c(=O)[nH]1 [Compound 5-FU, 5-fluorouracil] | 1.4 (≈ 10.7 µM) | 0.451 (≈ 3.47 µM) | 1.09 (≈ 8.4 µM) | > 10 | 7.01 (≈ 53.9 µM) | 5.49 (≈ 42.2 µM) | 0.695 (≈ 5.34 µM) | 2.25 (≈ 17.3 µM) |  |  |  |  |  |
| 870 ± 110 | O=C1[C@H](Cc2ccc(O)cc2)N2C(=O)CCN(C(=O)NCc3ccccc3)[C@H]2CN1Cc1cccc2ccccc12 [Compound D] |  |  |  |  |  |  |  |  | reduces colony growth in soft agar in a dose dependent manner | synergic stimuation of the caspase 3 activity | activates the caspase 3 activity | increases the number of cells in G0 | decreased TCF/β-catenin reporter gene transcription |
